# Source: a compilation of properties of binary mixtures (doi:10.1021/je300132e)
# Experiment: xn = mol fraction of the nth substance listed
# Details: 101 kPa
compound,measurement,setting,value
CC(=O)[O-].CC[n+]1ccn(C)c1 + O,viscosity,"293.1 K, x2 = 0.347",93.7 mPa·s
same,viscosity,"293.1 K, x2 = 0.627",42.8 mPa·s
same,viscosity,"313.1 K, x2 = 0.347",35.2 mPa·s
same,viscosity,"313.1 K, x2 = 0.517",24.4 mPa·s
same,viscosity,"313.1 K, x2 = 0.578",21.4 mPa·s
same,viscosity,"313.1 K, x2 = 0.627",18.2 mPa·s
same,viscosity,"313.1 K, x2 = 0.705",14 mPa·s
same,viscosity,"333.1 K, x2 = 0.347",16.9 mPa·s
same,viscosity,"333.1 K, x2 = 0.627",9.39 mPa·s
same,viscosity,"333.1 K, x2 = 0.705",7.36 mPa·s
same,viscosity,"353.1 K, x2 = 0.347",9.51 mPa·s
same,viscosity,"353.1 K, x2 = 0.517",7.19 mPa·s
same,viscosity,"353.1 K, x2 = 0.578",6.46 mPa·s
same,viscosity,"353.1 K, x2 = 0.627",5.63 mPa·s
same,viscosity,"353.1 K, x2 = 0.705",4.38 mPa·s
CC[NH+](C)CC.CS(=O)(=O)[O-] + O,viscosity,"293.1 K, x2 = 0.372",65.26 mPa·s
same,viscosity,"293.1 K, x2 = 0.449",49.94 mPa·s
same,viscosity,"293.1 K, x2 = 0.507",41.92 mPa·s
same,viscosity,"293.1 K, x2 = 0.624",27.93 mPa·s
same,viscosity,"313.1 K, x2 = 0.449",21.55 mPa·s
same,viscosity,"313.1 K, x2 = 0.507",18.69 mPa·s
same,viscosity,"313.1 K, x2 = 0.624",13.36 mPa·s
same,viscosity,"313.1 K, x2 = 0.707",10.09 mPa·s
same,viscosity,"333.1 K, x2 = 0.449",11.37 mPa·s
same,viscosity,"333.1 K, x2 = 0.624",7.34 mPa·s
same,viscosity,"333.1 K, x2 = 0.707",5.72 mPa·s
same,viscosity,"353.1 K, x2 = 0.372",8.2 mPa·s
same,viscosity,"353.1 K, x2 = 0.507",6.08 mPa·s
same,viscosity,"353.1 K, x2 = 0.707",3.6 mPa·s
